Measured values from US10344019B2 (priority 2010, dated 2019).
Read-outs that look alike come from different tables or passages of the source.

Tests used:
Test in all cases: microbe, parasite or virus in culture
Type in all cases: cell-based
[1] = tested on: HCV 3a RLuc cells (NS5A chimeric genotype 1b Con1 replicon with consensus genotype 3a NS5A gene)
Protocol: (§1) Evaluation of cell-based anti-HCV activity: Antiviral potency (EC50) was determined using a Renilla luciferase (RLuc)-based HCV replicon reporter assay. To perform the assay for genotype 1 and 2a JFH-1, HCV 1b RLuc cells (harboring a dicistronic genotype 1b Con1 replicon that encodes a RLuc reporter), or HCV 1a RLuc cells (harboring a dicistronic genotype 1a H77 replicon that encodes a RLuc reporter), or HCV 2a JFH-1 Rluc cells (harboring a dicistronic genotype 2a JFH-1 replicon that encodes a RLuc reporter) were dispensed into 384-well plates. To perform the assay for genotype 2a (with M31 present) or 2b, HCV 2a Rluc or 2b Rluc cells (both with M31 present) harboring a dicistronic NS5A chimeric genotype 2a JFH-1 replicon that encodes a RLuc reporter and either genotype 2a J6 strain NS5A gene or genotype 2b MD2b-1 NS5A gene (based on Los Alamos HCV database isolates, both with M31 present) respectively, were dispensed into 384-well plates. To perform the assay for genotype 3 and 4, HCV 3a RLuc or 4a Rluc cells harboring a dicistronic NS5A chimeric genotype 1b Con1 replicon that encodes a RLuc reporter and either a consensus genotype 3a NS5A gene or genotype 4a NS5A gene (based on Los Alamos HCV database isolates) respectively, were dispensed into 384-well plates. Compounds were re-suspended in DMSO at a concentration of 10 mM and serially diluted in DMSO either manually or using an automated pipeting instrument. Serially diluted compounds were mixed with cell culture media and added to the seeded cells. […] 72 hours later, cells were lysed and Renilla luciferase activity quantified as recommended by the manufacturer (Promega-Madison, Wis.). Non-linear regression was performed to calculate EC50 values.

[2] = tested on: HCV 2a JFH-1 Rluc cells (dicistronic genotype 2a JFH-1 replicon, RLuc reporter); details: genotype 2a JFH-1 replicon, read-out: 2a JFH
Protocol: as §1

[3] = tested on: HCV 1a RLuc cells (dicistronic genotype 1a H77 replicon, RLuc reporter); details: genotype 1a H77 replicon, read-out: 1a
Protocol: as §1

[4] = tested on: HCV 1b RLuc cells (dicistronic genotype 1b Con1 replicon, RLuc reporter)
Protocol: as §1

[5] = Hepatitis C virus, read-out: 3a, Table 2, genotype 3a NS5A chimeric replicon
[6] = Hepatitis C virus, 72 h, Table 2, 72 hours
[7] = Hepatitis C virus, 72 h, read-out: 1b (nM)
[8] = Hepatitis C virus, read-out: 3a, genotype 3a NS5A chimeric 1b Con1 replicon
[9] = Hepatitis C virus, RLuc reporter
[10] = Hepatitis C virus, read-out: 1b (nM)
[11] = Hepatitis C virus, 72 h, Table 1, 72 hours

Structure (SMILES)	EC50 [1, 8] [nM]	EC50 [2, 9] [nM]	EC50 [3, 9] [nM]	EC50 [4, 10] [nM]	other results
COC(=O)N[C@H](C(=O)N1CC(=O)C[C@H]1c1ncc(-c2ccc(-c3ccc4cc(-c5cnc([C@@H]6CCCN6C(=O)[C@@H](c6ccccc6)N(C)C)[nH]5)ccc4c3)cc2)[nH]1)C(C)C [Example 33]	–	–	–	–	EC50 [1, 5]: 0.001 to 0.99 nM; EC50 [2, 6]: 0.001 to 0.999 nM; EC50 [3, 6]: 0.001 to 0.999 nM; EC50 [4, 7]: 0.009 nM
COC(=O)N[C@H](C(=O)N1CCC[C@H]1c1ncc(-c2ccc3cc(-c4ccc(-c5cnc([C@@H]6CCCN6C(=O)[C@](C)(NC(=O)OC)c6ccccc6)[nH]5)cc4)ccc3c2)[nH]1)C(C)C [Example 162]	1 to 4.99	1 to 44	1 to 44	0.01	–
COC(=O)N[C@H](C(=O)N1CCC[C@H]1c1ncc(-c2ccc3cc(-c4ccc(-c5cnc([C@@H]6C[C@@H](C#N)CN6C(=O)[C@H](NC(=O)OC)c6ccccc6)[nH]5)cc4)ccc3c2)[nH]1)C(C)C [Example 145]	1 to 4.99	0.001 to 0.999	0.001 to 0.999	0.01	–
COC(=O)N[C@H](C(=O)N1CCC[C@H]1c1ncc(-c2ccc(-c3ccc4cc(-c5cnc([C@@H]6CCCN6C(=O)[C@H](NC(=O)OC)c6ccccc6)[nH]5)ccc4c3)cc2)[nH]1)C(C)C [Example 27]	–	–	–	–	EC50 ([1]; read-out: 3a, Table 2, genotype 3a NS5A chimeric replicon): 0.001 to 0.99 nM; EC50 ([2]; Table 2, 72 hours): 0.001 to 0.999 nM; EC50 ([3]; Table 2, 72 hours): 0.001 to 0.999 nM; EC50 ([4]; read-out: 1b): 0.011 nM
COC(=O)N[C@H](C(=O)N1CCC[C@H]1c1ncc(-c2ccc(-c3ccc4cc(-c5cnc([C@@H]6CCCN6C(=O)[C@@H](NC(=O)OC)C(C)C)[nH]5)ccc4c3)cc2)[nH]1)c1ccccc1Cl [Example 103]	0.001 to 0.99	0.001 to 0.999	0.001 to 0.999	0.007	–
CCN(CC)[C@@H](C(=O)N1CCC[C@H]1c1ncc(-c2ccc(-c3ccc4cc(-c5cnc([C@@H]6CCCN6C(=O)[C@@H](NC(=O)OC)C6CCOCC6)[nH]5)ccc4c3)cc2)[nH]1)c1ccccc1 [Example 171]	0.001 to 0.99	0.001 to 0.999	0.001 to 0.999	0.026	–
COC(=O)N[C@H](C(=O)N1CCCC1c1ncc(-c2ccc3cc(-c4ccc(-c5cnc([C@@H]6CCCN6C(=O)[C@H](NC(=O)OC)c6ccccc6)[nH]5)cc4)ccc3c2)[nH]1)C1CCOCC1 (stereo partly drawn) [Example 153]	0.001 to 0.99	0.001 to 0.999	0.001 to 0.999	0.012	–
CCC(=O)N[C@@H](C(=O)N1CCC[C@H]1c1ncc(-c2ccc(-c3ccc4cc(-c5cnc([C@@H]6CCCN6C(=O)[C@@H](NC(=O)OC)C(C)C)[nH]5)ccc4c3)cc2)[nH]1)c1ccccc1 [Example 187]	0.001 to 0.99	0.001 to 0.999	0.001 to 0.999	0.007	–
COC(=O)N[C@H](C(=O)N1CCC[C@H]1c1ncc(-c2ccc(-c3ccc4cc(-c5cnc([C@@H]6CCCN6C(=O)[C@@H](NC(=O)OC)C(C)C)[nH]5)ccc4c3)cc2)[nH]1)c1ccc(Cl)cc1 [Example 106]	1 to 4.99	1 to 44	1 to 44	0.024	–
COC(=O)N[C@H](C(=O)N1CCC[C@H]1c1ncc(-c2ccc3cc(-c4ccc(-c5cnc([C@@H]6CCCN6C(=O)[C@H](NC(=O)OC)c6ccccc6)[nH]5)cc4)ccc3c2)[nH]1)C(C)C [Example 29]	–	–	–	–	EC50 [1, 5]: 0.001 to 0.99 nM; EC50 [2, 6]: 0.001 to 0.999 nM; EC50 [3, 6]: 0.001 to 0.999 nM; EC50 [4, 7]: 0.014 nM
COC(=O)N[C@H](C(=O)N1CCC[C@H]1c1ncc(-c2ccc3cc(-c4ccc(-c5cnc([C@@H]6CCCN6C(=O)[C@H](NC(=O)OC)c6ccc(OC)cc6)[nH]5)cc4)ccc3c2)[nH]1)C(C)C [Example 109]	> 5	> 44	1 to 44	1.6	–
COC(=O)N[C@H](C(=O)N1CCC[C@H]1c1ncc(-c2ccc3cc(-c4ccc5c(ccc6nc([C@@H]7CCCN7C(=O)[C@H](NC(=O)OC)c7ccccc7)[nH]c65)c4)ccc3c2)[nH]1)C1CCOCC1 [Example 173]	0.001 to 0.99	0.001 to 0.999	0.001 to 0.999	0.024	–
COC(=O)N[C@H](C(=O)N1C[C@H](C)C[C@H]1c1ncc(-c2ccc(-c3ccc4cc(-c5cnc([C@@H]6C[C@H](C#N)CN6C(=O)[C@H](NC(=O)OC)c6ccccc6)[nH]5)ccc4c3)cc2)[nH]1)C(C)C [Example 113]	0.001 to 0.99	0.001 to 0.999	0.001 to 0.999	0.014	–
COC(=O)N[C@H](C(=O)N1CCC[C@H]1c1ncc(-c2ccc3cc(-c4ccc(-c5cnc([C@@H]6CCCN6C(=O)[C@H](NC(=O)OC)c6ccccc6F)[nH]5)cc4)ccc3c2)[nH]1)C(C)C [Example 149]	–	–	–	–	EC50 ([1]; read-out: 3a, genotype 3a NS5A chimeric 1b Con1 replicon): 0.001 to 0.99 nM; EC50 ([2]; RLuc reporter): 0.001 to 0.999 nM; EC50 ([3]; RLuc reporter): 0.001 to 0.999 nM; EC50 ([4]; read-out: 1b): 0.005 nM
COC(=O)N[C@H](C(=O)N1CCC[C@H]1c1ncc(-c2nc3cc4sc(-c5cnc([C@@H]6CCCN6C(=O)[C@@H](NC(=O)OC)C(C)C)[nH]5)nc4cc3s2)[nH]1)C(C)C [Example 141]	> 5	1 to 44	1 to 44	0.181	–
COC(=O)N[C@H](C(=O)N1CCC[C@H]1c1ncc(-c2ccc(-c3ccc4cc(-c5cnc([C@@H]6CCCN6C(=O)[C@@H](NC(=O)OC)C(C)C)[nH]5)ccc4c3)cc2)[nH]1)c1ccc(OC)cc1 [Example 108]	> 5	1 to 44	0.001 to 0.999	0.028	–
COC(=O)N[C@H](C(=O)N1CCC[C@H]1c1ncc(-c2ccc3c4c(ccc3c2)-c2ccc(-c3cnc([C@@H]5CCCN5C(=O)C(c5ccccc5)N(C)C)[nH]3)cc2CO4)[nH]1)C(C)C (stereo partly drawn) [Example 3]	–	–	–	–	EC50 ([1]; Hepatitis C virus, read-out: 3a, Table 1, genotype 3a NS5A chimeric replicon): 0.001 to 0.99 nM; EC50 [2, 11]: 0.001 to 0.999 nM; EC50 [3, 11]: 0.001 to 0.999 nM; EC50 [4, 7]: 0.011 nM
COC(=O)N[C@H](C(=O)N1CC2(CC2)C[C@H]1c1ncc(-c2ccc3c(c2)C(F)(F)c2cc(-c4cnc([C@@H]5[C@H]6CC[C@H](C6)N5C(=O)[C@H](NC(=O)OC)c5ccccc5)[nH]4)ccc2-3)[nH]1)C(C)C [Example 37]	–	–	–	–	EC50 [1, 5]: 0.001 to 0.99 nM; EC50 [2, 6]: 1 to 44 nM; EC50 [3, 6]: 0.001 to 0.999 nM; EC50 [4, 7]: 0.004 nM
COC(=O)N[C@H](C(=O)N1CCC[C@H]1c1ncc(-c2ccc3cc(-c4ccc(-c5cnc([C@@H]6C[C@H](C)CN6C(=O)[C@H](NC(=O)OC)c6ccccc6)[nH]5)cc4)ccc3c2)[nH]1)C(C)C [Example 32]	–	–	–	–	EC50 [1, 5]: > 5 nM; EC50 [2, 6]: 0.001 to 0.999 nM; EC50 [3, 6]: 0.001 to 0.999 nM; EC50 [4, 7]: 0.02 nM
COC(=O)N[C@H](C(=O)N1CCC[C@H]1c1ncc(-c2ccc(-c3ccc4cc(-c5cnc([C@@H]6CCCN6C(=O)C(c6ccccc6)N6CCOCC6)[nH]5)ccc4c3)cc2)[nH]1)C(C)C (stereo partly drawn) [Example 120]	0.001 to 0.99	0.001 to 0.999	0.001 to 0.999	0.014	–
COC(=O)NC(C(=O)N1CCC[C@H]1c1ncc(-c2ccc(-c3ccc4cc(-c5cnc([C@@H]6CCCN6C(=O)[C@@H](NC(=O)OC)C(C)C)[nH]5)ccc4c3)cc2)[nH]1)c1cccc(C(F)(F)F)c1 (stereo partly drawn) [Example 146]	> 5	1 to 44	1 to 44	0.048	–
CCN(CC)C(C(=O)N1CCC[C@H]1c1ncc(-c2ccc(-c3ccc4cc(-c5cnc([C@@H]6CCCN6C(=O)[C@@H](NC(=O)OC)C(C)C)[nH]5)ccc4c3)cc2)[nH]1)c1ccccc1 (stereo partly drawn) [Example 138]	0.001 to 0.99	0.001 to 0.999	0.001 to 0.999	0.006	–
COC(=O)N[C@H](C(=O)N1CCC[C@H]1c1ncc(-c2ccc(-c3ccc4cc(-c5cnc([C@@H]6CCCN6C(=O)C(c6ccccc6)N(C)C)[nH]5)ccc4c3)cc2)[nH]1)C(C)C (stereo partly drawn) [Example 110]	0.001 to 0.99	0.001 to 0.999	0.001 to 0.999	0.009	–
COC(=O)NC(C(=O)N1CCC[C@@]1(F)c1ncc(-c2ccc(-c3ccc4cc(-c5cnc([C@@H]6CCCN6C(=O)[C@@H](NC(=O)OC)C(C)C)[nH]5)ccc4c3)cc2)[nH]1)c1ccc2c(c1)OCO2 (stereo partly drawn) [Example 143]	> 5	1 to 44	0.001 to 0.999	0.025	–
